In one assay the target is D4 receptors. Put plainly: D4 receptor binding (displacement of 3H-YM 09151-2). Set-up: species or system African Green monkey. The following applies: COS cells with recombinant D4 receptors; 0.5 nM 3H-YM 09151-2; Table 2. As to the method: (§1) Assay for D2 and D4 Receptor Binding Activity
(§2) Pellets of COS cells containing recombinantly produced D2 or D4 receptors from African Green monkey were used for the assays. The sample is homogenized in 100 volumes (w/vol) of 0.05 M Tris HCl buffer at 4° C. and pH 7.4. The sample is then centrifuged at 30,000×g and resuspended and rehomogenized. The sample is then centrifuged as described and the final tissue sample is frozen until use. The tissue is resuspended 1:20 (wt/vol) in 0.05 M Tris HCl buffer containing 100 mM NaCl.
(§3) Incubations are carried out at […] and contain 0.4 ml of tissue sample, 0.5 nM ^3 H-YM 09151-2 (Nemonapride, cis-5-Chloro-2-methoxy-4-(methylamino)-N-(2-methyl-2-(phenylmethyl)-3-pyrroli-dinyl)benzamide) and the compound of interest in a total incubation of 1.0 ml. Nonspecific binding is defined as that binding found in the presence of 1 mM spiperone; without further additions, nonspecific binding is less than 20% of total binding.

For another assay, the target named is D2 receptors (Chlorocebus aethiops, UniProt P52702). Put plainly: D2 receptor binding (displacement of 3H-YM 09151-2). Set-up: species or system African Green monkey. As to conditions: COS cells with recombinant D2 receptors; 0.5 nM 3H-YM 09151-2; Table 2. As for the experimental part: as §1, §2, §3
Sequence of D2 receptors (P52702 whole entry): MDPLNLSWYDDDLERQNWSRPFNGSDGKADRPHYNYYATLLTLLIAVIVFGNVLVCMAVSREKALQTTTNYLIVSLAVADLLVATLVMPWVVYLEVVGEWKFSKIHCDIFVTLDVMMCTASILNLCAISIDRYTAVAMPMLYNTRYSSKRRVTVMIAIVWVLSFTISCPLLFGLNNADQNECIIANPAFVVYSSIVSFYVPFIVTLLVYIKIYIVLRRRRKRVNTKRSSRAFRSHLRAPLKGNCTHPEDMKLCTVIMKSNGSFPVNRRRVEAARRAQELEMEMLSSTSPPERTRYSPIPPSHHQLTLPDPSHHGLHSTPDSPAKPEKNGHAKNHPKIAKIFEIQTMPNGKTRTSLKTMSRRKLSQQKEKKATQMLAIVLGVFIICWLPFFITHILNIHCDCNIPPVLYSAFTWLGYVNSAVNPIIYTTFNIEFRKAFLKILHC
In general terms: Loss of bound radioactivity is the signal in a displacement assay; it reports binding, not function.

Structures can show the parent of a compound that is named as a salt. Bounds are passed on as bounds.

Usually Ki stands for the equilibrium dissociation constant of an inhibitor or competing ligand from its target.

For `Clc1ccc(CN2CCN(c3nc4ccccc4s3)CC2)cc1` [Compound 1A, 1-(Benzothiazol-2-yl)-4-(1-[4-chlorophenyl]methyl)piperazine], the Ki is 14 nM at D4 receptors and above 4000 nM on D2 receptors.

With `Cc1ccc(CN2CCN(c3nc4ccccc4s3)CC2)cc1` [Compound 2A, 1-(benzothiazol-2-yl)-4-(1-[4-methylphenyl]methyl)piperazine oxalate], the Ki was found to be 25 nM on D4 receptors and 3510 nM at D2 receptors.

In the case of `c1ccc2cc(CN3CCN(c4nc5ccccc5s4)CC3)ccc2c1` [Compound 4A, 1-(benzothiazol-2-yl)-4-(1-[2-naphthyl]methyl)piperazine oxalate], the Ki at D4 receptors stood at 76 nM; on D2 receptors, 3510 nM.

(Values after patent US6291463A, “1-(Benzothiazol-2-yl)-4-(1-phenylmethyl) piperazines: dopamine receptor subtype specific ligands” (Neurogen Corporation, priority 1999, dated 2001).)
